In PubChem BioAssay (NCI):
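48-hour exposure; five concentrations; linearly interpolated endpoints. GI50 is the concentration that inhibits growth by half. TGI is the concentration that stops growth completely.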

What was measured:
Assay in all cases: NCI tumour cell line growth inhibition, 48 h
HCC-2998 colon = system: HCC-2998 colon
EKVX NSCLC = system: EKVX NSCLC
HOP-62 NSCLC = system: HOP-62 NSCLC
SN12C renal = system: SN12C renal
UACC-62 melanoma = system: UACC-62 melanoma
UO-31 renal = system: UO-31 renal
COLO 205 colon = system: COLO 205 colon
NCI-H226 lung = system: NCI-H226 lung
TK-10 renal = system: TK-10 renal
CAKI-1 renal = system: CAKI-1 renal
K-562 leukemia = system: K-562 leukemia
MCF7 breast = system: MCF7 breast
T-47D breast = system: T-47D breast
RXF 393 renal = system: RXF 393 renal
MDA-MB-231 breast = system: MDA-MB-231 breast
HL-60(TB) leukemia = system: HL-60(TB) leukemia
OVCAR-4 ovarian = system: OVCAR-4 ovarian
OVCAR-8 ovarian = system: OVCAR-8 ovarian
SF-268 CNS = system: SF-268 CNS
ACHN renal = system: ACHN renal
NCI/ADR-RES ovarian = system: NCI/ADR-RES ovarian
HS 578T breast = system: HS 578T breast
SK-MEL-5 melanoma = system: SK-MEL-5 melanoma
A549 NSCLC = system: A549 NSCLC
HCT-15 colon = system: HCT-15 colon
UACC-257 melanoma = system: UACC-257 melanoma
SK-MEL-28 melanoma = system: SK-MEL-28 melanoma
SF-295 CNS = system: SF-295 CNS
SF-539 CNS = system: SF-539 CNS
A498 renal = system: A498 renal
NCI-H460 lung = system: NCI-H460 lung
MALME-3M melanoma = system: MALME-3M melanoma
HT29 colon = system: HT29 colon
786-0 renal = system: 786-0 renal
SK-MEL-2 melanoma = system: SK-MEL-2 melanoma
KM12 colon = system: KM12 colon
RPMI-8226 leukemia = system: RPMI-8226 leukemia
SNB-19 CNS = system: SNB-19 CNS
IGROV1 ovarian = system: IGROV1 ovarian
MOLT-4 leukemia = system: MOLT-4 leukemia
SW-620 colon = system: SW-620 colon
NCI-H23 lung = system: NCI-H23 lung
PC-3 prostate = system: PC-3 prostate
HCT-116 colon = system: HCT-116 colon
OVCAR-3 ovarian = system: OVCAR-3 ovarian
BT-549 breast = system: BT-549 breast
SK-OV-3 ovarian = system: SK-OV-3 ovarian
SNB-75 CNS = system: SNB-75 CNS
MDA-MB-435 = system: MDA-MB-435
OVCAR-5 ovarian = system: OVCAR-5 ovarian
M14 melanoma = system: M14 melanoma
U251 CNS = system: U251 CNS

Work on CCCCCCCCCCCCCCCC1=NCC[N+]1(CCO)CCO yielded a GI50 (HCC-2998 colon) of 1.68 µM, a TGI (HCC-2998 colon) of 4.19 µM and a GI50 (EKVX NSCLC) of 10.2 µM. It also gave a TGI (EKVX NSCLC) of 32.4 µM, a GI50 (HOP-62 NSCLC) of 1.71 µM and a TGI (HOP-62 NSCLC) of 3.23 µM. For the same molecule, the GI50 (SN12C renal) was 1.85 µM, the TGI (SN12C renal) was 3.92 µM and the GI50 (UACC-62 melanoma) was 1.77 µM. It also gave a TGI (UACC-62 melanoma) of 3.27 µM, a GI50 (UO-31 renal) of 1.4 µM and a TGI (UO-31 renal) of 3.33 µM. It also gave a GI50 (COLO 205 colon) of 1.87 µM, a TGI (COLO 205 colon) of 3.68 µM and a GI50 (NCI-H226 lung) of 3.17 µM. It also gave a TGI (NCI-H226 lung) of 12.3 µM, a GI50 (TK-10 renal) of 3.55 µM and a TGI (TK-10 renal) of 13.6 µM. It also gave a GI50 (CAKI-1 renal) of 3.58 µM, a TGI (CAKI-1 renal) of 14.6 µM and a GI50 (K-562 leukemia) of 1.36 µM. It also gave a TGI (K-562 leukemia) of 2.82 µM, a GI50 (MCF7 breast) of 3.46 µM and a TGI (MCF7 breast) of 14 µM. The GI50 (T-47D breast) was 3.35 µM, the TGI (T-47D breast) was 13.2 µM and the GI50 (RXF 393 renal) was 2.47 µM. For the same molecule, the TGI (RXF 393 renal) was 6.28 µM, the GI50 (MDA-MB-231 breast) was 1.81 µM and the TGI (MDA-MB-231 breast) was 3.51 µM. The GI50 (HL-60(TB) leukemia) was 0.442 µM, the TGI (HL-60(TB) leukemia) was 2.61 µM and the GI50 (OVCAR-4 ovarian) was 4.75 µM. The TGI (OVCAR-4 ovarian) was 26.5 µM, the GI50 (OVCAR-8 ovarian) was 3.03 µM and the TGI (OVCAR-8 ovarian) was 8.36 µM. The GI50 (SF-268 CNS) was 1.71 µM, the TGI (SF-268 CNS) was 3.46 µM and the GI50 (ACHN renal) was 2.53 µM. The TGI (ACHN renal) was 6.64 µM, the GI50 (NCI/ADR-RES ovarian) was 2.62 µM and the TGI (NCI/ADR-RES ovarian) was 6.61 µM. For the same molecule, the GI50 (HS 578T breast) was 2.51 µM, the TGI (HS 578T breast) was 7.17 µM and the GI50 (SK-MEL-5 melanoma) was 4.39 µM. It also gave a TGI (SK-MEL-5 melanoma) of 16.1 µM, a GI50 (A549 NSCLC) of 2.28 µM and a TGI (A549 NSCLC) of 5.35 µM. For the same molecule, the GI50 (HCT-15 colon) was 1.94 µM, the TGI (HCT-15 colon) was 4.48 µM and the GI50 (UACC-257 melanoma) was 6.48 µM. The TGI (UACC-257 melanoma) was 20.7 µM, the GI50 (SK-MEL-28 melanoma) was 5.1 µM and the TGI (SK-MEL-28 melanoma) was 16.8 µM. The GI50 (SF-295 CNS) was 10.5 µM, the TGI (SF-295 CNS) was 26.3 µM and the GI50 (SF-539 CNS) was 1.91 µM. The TGI (SF-539 CNS) was 4 µM, the GI50 (A498 renal) was 7.79 µM and the TGI (A498 renal) was 21.6 µM. For the same molecule, the GI50 (NCI-H460 lung) was 1.84 µM, the TGI (NCI-H460 lung) was 3.47 µM and the GI50 (MALME-3M melanoma) was 12.2 µM. It also gave a TGI (MALME-3M melanoma) of 28 µM, a GI50 (HT29 colon) of 2.57 µM and a TGI (HT29 colon) of 9.13 µM. For the same molecule, the GI50 (786-0 renal) was 1.64 µM, the TGI (786-0 renal) was 3 µM and the GI50 (SK-MEL-2 melanoma) was 2.89 µM. For the same molecule, the TGI (SK-MEL-2 melanoma) was 10.3 µM, the GI50 (KM12 colon) was 1.78 µM and the TGI (KM12 colon) was 3.52 µM. For the same molecule, the GI50 (RPMI-8226 leukemia) was 4.89 µM, the TGI (RPMI-8226 leukemia) was 40.5 µM and the GI50 (SNB-19 CNS) was 3.8 µM. The TGI (SNB-19 CNS) was 15.9 µM, the GI50 (IGROV1 ovarian) was 1.21 µM and the TGI (IGROV1 ovarian) was 2.63 µM. The GI50 (MOLT-4 leukemia) was 1.8 µM, the TGI (MOLT-4 leukemia) was 4.15 µM and the GI50 (SW-620 colon) was 1.76 µM. It also gave a TGI (SW-620 colon) of 3.54 µM, a GI50 (NCI-H23 lung) of 2.16 µM and a TGI (NCI-H23 lung) of 5.08 µM. It also gave a GI50 (PC-3 prostate) of 1.42 µM, a TGI (PC-3 prostate) of 3.3 µM and a GI50 (HCT-116 colon) of 1.59 µM. The TGI (HCT-116 colon) was 2.94 µM, the GI50 (OVCAR-3 ovarian) was 2.52 µM and the TGI (OVCAR-3 ovarian) was 5.74 µM. The GI50 (BT-549 breast) was 3.3 µM, the TGI (BT-549 breast) was 11.9 µM and the GI50 (SK-OV-3 ovarian) was 4.3 µM. For the same molecule, the TGI (SK-OV-3 ovarian) was 15.9 µM, the GI50 (SNB-75 CNS) was 2.47 µM and the TGI (SNB-75 CNS) was 16.6 µM. The GI50 (MDA-MB-435) was 2.1 µM, the TGI (MDA-MB-435) was 4.4 µM and the GI50 (OVCAR-5 ovarian) was 1.97 µM. It also gave a TGI (OVCAR-5 ovarian) of 4.15 µM, a GI50 (M14 melanoma) of 1.62 µM and a TGI (M14 melanoma) of 3.01 µM. It also gave a GI50 (U251 CNS) of 1.64 µM and a TGI (U251 CNS) of 3.03 µM.
